# Measurements as given in patent publication US6335168B1 (priority 1998, dated 2002).
# System: A118G variant human mu opioid receptor
# Assay type: cell-based
# Conditions: GIRK activation in oocytes
substance,measurement,value
β-endorphin,difference of EC50 values between the A118G variant and the most common mu opioid receptors,about three
